Test results as given in publication PMC4904262 (ACS Medicinal Chemistry Letters, 2016).

Experiments:
[1] = target: WNK2 (Homo sapiens, UniProt Q9Y3S1); conditions: 1 µM, ATP at Km
[2] = target: CK1GAMMA1 (Homo sapiens, UniProt Q9HCP0); conditions: 1 µM, ATP at Km
[3] = target: PI3K GAMMA (Homo sapiens, UniProt P48736); conditions: 1 µM, ATP at Km
[4] = target: FLT3 (Homo sapiens, UniProt P36888); conditions: 1 µM, ATP at Km
[5] = target: PKCGAMMA (Homo sapiens, UniProt P05129); conditions: 1 µM, ATP at Km
[6] = target: HCK (Homo sapiens, UniProt P08631); conditions: HCK (first listing, page 8); 1 µM; ATP at Km
[7] = target: SRPK1 (Homo sapiens, UniProt Q96SB4); conditions: 1 µM, ATP at Km
[8] = target: DDR2 (Homo sapiens, UniProt Q16832); conditions: 1 µM, ATP at Km
[9] = target: LCK (Homo sapiens, UniProt P06239); conditions: LCK (first listing, page 9); 1 µM; ATP at Km
[10] = target: IR, ACTIVATED (Homo sapiens, UniProt P06213); conditions: 1 µM, ATP at Km
[11] = target: NLK (Homo sapiens, UniProt Q9UBE8); conditions: 1 µM, ATP at Km
Chain of NLK (Q9UBE8 whole entry): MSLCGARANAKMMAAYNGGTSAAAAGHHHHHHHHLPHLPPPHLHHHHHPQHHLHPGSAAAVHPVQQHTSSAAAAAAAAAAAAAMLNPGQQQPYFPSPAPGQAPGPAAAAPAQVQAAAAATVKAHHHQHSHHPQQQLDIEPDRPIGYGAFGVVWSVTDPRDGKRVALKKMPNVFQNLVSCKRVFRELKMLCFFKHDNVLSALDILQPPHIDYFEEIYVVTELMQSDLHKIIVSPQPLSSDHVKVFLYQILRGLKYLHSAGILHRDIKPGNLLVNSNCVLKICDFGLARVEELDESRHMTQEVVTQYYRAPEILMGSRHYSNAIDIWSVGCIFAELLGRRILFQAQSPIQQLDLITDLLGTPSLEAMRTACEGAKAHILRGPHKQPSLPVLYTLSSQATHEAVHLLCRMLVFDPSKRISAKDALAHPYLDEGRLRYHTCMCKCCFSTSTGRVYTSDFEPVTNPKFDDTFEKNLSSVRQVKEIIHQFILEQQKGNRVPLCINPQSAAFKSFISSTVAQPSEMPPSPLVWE

[12] = target: PTK5 (Homo sapiens, UniProt P42685); conditions: 1 µM, ATP at Km
[13] = target: PKCETA (Homo sapiens, UniProt P24723); conditions: 1 µM, ATP at Km
[14] = target: CAMKI (Homo sapiens, UniProt Q14012); conditions: 1 µM, ATP at Km
[15] = target: PKBALPHA (Homo sapiens, UniProt P31749); conditions: 1 µM, ATP at Km
[16] = target: PHKGAMMA2 (Homo sapiens, UniProt P15735); conditions: 1 µM, ATP at Km
[17] = target: LKB1 (Homo sapiens, UniProt Q15831); conditions: 1 µM, ATP at Km
[18] = target: EPHA4 (Homo sapiens, UniProt P54764); conditions: 1 µM, ATP at Km
[19] = target: […] (Homo sapiens, UniProt Q13557); conditions: 1 µM, ATP at Km
[20] = target: CDK5/P35 (Homo sapiens, UniProt Q00535); conditions: 1 µM, ATP at Km
[21] = target: IR (Homo sapiens, UniProt P06213); conditions: 1 µM, ATP at Km
[22] = target: PIP4K2A (Homo sapiens, UniProt P48426); conditions: 1 µM, ATP at Km
[23] = target: PKCBETAI (Homo sapiens, UniProt P05771); conditions: 1 µM, ATP at Km
[24] = target: PAK2 (Homo sapiens, UniProt Q13177); conditions: 1 µM, ATP at Km
[25] = target: DMPK (Homo sapiens, UniProt Q09013); conditions: 1 µM, ATP at Km
Chain of DMPK (Q09013 whole entry): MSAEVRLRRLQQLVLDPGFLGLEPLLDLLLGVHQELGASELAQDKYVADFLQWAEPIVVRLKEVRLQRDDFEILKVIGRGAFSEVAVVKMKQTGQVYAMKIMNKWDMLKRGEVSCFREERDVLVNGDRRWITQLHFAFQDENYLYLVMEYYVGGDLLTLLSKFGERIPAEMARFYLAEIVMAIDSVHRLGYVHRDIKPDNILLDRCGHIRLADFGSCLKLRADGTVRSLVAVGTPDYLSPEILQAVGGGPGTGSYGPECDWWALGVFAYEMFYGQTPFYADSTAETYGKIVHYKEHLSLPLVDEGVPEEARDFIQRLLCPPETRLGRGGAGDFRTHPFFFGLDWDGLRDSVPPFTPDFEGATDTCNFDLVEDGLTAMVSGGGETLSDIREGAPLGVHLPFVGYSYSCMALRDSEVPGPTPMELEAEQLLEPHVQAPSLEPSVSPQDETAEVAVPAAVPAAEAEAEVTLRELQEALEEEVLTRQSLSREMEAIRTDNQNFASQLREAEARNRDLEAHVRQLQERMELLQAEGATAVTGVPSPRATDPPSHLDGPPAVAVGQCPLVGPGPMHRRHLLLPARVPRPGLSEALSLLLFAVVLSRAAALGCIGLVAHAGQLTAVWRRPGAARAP

[26] = target: ABL (Homo sapiens, UniProt P00519); conditions: 1 µM, ATP at Km
Chain of ABL (P00519 whole entry): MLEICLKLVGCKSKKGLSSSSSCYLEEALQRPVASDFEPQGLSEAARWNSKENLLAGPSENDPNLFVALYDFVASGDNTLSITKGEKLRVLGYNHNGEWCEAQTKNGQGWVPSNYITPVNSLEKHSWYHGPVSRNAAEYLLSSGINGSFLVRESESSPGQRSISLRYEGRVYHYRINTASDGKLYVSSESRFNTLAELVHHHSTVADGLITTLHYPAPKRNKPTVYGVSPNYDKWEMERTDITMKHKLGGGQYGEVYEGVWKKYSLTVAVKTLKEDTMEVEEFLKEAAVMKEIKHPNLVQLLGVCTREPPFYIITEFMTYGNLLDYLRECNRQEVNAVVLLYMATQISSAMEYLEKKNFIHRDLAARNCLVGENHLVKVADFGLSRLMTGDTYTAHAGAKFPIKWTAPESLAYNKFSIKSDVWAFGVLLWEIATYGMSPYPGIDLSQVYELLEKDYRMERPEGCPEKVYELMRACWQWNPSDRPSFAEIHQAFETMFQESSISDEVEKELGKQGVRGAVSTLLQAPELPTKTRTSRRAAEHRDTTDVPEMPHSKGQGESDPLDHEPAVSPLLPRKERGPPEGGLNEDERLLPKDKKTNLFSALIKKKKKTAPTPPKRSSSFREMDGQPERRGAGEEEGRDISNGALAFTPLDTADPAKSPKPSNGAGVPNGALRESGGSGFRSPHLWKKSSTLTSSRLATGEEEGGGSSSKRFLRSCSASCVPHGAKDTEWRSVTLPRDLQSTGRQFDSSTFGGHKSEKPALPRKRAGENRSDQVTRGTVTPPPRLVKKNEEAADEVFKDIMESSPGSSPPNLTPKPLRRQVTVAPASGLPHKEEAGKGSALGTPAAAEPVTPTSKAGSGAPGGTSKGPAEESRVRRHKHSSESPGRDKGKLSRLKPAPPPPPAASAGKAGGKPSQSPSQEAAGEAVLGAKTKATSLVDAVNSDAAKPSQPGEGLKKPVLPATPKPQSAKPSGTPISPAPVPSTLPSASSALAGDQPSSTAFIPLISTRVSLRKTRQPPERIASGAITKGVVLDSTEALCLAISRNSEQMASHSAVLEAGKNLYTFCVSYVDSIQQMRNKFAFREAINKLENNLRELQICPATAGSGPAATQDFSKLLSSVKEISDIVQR

[27] = target: JAK2 (Homo sapiens, UniProt O60674); conditions: 1 µM, ATP at Km
[28] = target: PRKAA2 (Homo sapiens, UniProt P54646); conditions: 1 µM, ATP at Km
[29] = target: EPHB3 (Homo sapiens, UniProt P54753); conditions: 1 µM, ATP at Km
[30] = target: HASPIN (Homo sapiens, UniProt Q8TF76); conditions: 1 µM, ATP at Km
[31] = target: RSK2 (Homo sapiens, UniProt P51812); conditions: 1 µM, ATP at Km
[32] = target: TAO2 (Homo sapiens, UniProt Q9UL54); conditions: 1 µM, ATP at Km
[33] = target: LIMK1 (Homo sapiens, UniProt P53667); conditions: 1 µM, ATP at Km
[34] = target: IKKALPHA (Homo sapiens, UniProt O15111); conditions: 1 µM, ATP at Km
[35] = target: HIPK3 (Homo sapiens, UniProt Q9H422); conditions: 1 µM, ATP at Km
Chain of HIPK3 (Q9H422 whole entry): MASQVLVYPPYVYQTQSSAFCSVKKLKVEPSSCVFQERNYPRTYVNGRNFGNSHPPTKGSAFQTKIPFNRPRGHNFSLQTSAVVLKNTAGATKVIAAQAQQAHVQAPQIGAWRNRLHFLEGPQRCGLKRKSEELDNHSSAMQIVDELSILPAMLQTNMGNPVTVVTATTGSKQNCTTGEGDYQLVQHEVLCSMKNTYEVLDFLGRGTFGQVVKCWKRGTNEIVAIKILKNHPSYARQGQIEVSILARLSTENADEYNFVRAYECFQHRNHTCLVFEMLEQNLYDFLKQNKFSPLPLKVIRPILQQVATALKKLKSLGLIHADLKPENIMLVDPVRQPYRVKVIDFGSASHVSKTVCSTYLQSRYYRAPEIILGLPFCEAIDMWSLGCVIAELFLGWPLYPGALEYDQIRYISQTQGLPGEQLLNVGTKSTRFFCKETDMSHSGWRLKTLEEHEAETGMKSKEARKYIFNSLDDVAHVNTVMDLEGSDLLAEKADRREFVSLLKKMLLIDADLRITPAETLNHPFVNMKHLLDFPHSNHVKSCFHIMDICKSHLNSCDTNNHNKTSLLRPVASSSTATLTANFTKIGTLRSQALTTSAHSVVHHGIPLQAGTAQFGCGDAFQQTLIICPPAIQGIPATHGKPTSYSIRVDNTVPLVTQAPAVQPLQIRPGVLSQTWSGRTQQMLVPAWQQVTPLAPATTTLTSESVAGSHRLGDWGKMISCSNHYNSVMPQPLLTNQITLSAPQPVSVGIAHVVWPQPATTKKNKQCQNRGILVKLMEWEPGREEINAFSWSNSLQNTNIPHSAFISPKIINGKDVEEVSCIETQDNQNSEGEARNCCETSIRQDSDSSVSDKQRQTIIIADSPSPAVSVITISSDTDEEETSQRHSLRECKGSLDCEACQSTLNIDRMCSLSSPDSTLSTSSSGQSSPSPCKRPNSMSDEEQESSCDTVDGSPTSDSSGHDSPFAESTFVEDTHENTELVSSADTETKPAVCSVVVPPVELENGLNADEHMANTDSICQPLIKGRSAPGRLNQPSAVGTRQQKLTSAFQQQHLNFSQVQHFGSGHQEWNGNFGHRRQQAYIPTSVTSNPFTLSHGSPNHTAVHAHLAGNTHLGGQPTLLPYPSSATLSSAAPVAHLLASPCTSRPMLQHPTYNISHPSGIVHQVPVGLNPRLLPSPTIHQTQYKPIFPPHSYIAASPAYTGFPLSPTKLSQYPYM

[36] = target: TXK (Homo sapiens, UniProt P42681); conditions: 1 µM, ATP at Km
[37] = target: MST2 (Homo sapiens, UniProt Q13188); conditions: 1 µM, ATP at Km
[38] = target: PKD2 (Homo sapiens, UniProt Q9BZL6); conditions: 1 µM, ATP at Km
[39] = target: MNK2 (Homo sapiens, UniProt Q9HBH9); conditions: 1 µM, ATP at Km
[40] = target: MINK (Homo sapiens, UniProt Q8N4C8); conditions: 1 µM, ATP at Km
[41] = target: GRK6 (Homo sapiens, UniProt P43250); conditions: 1 µM, ATP at Km
[42] = target: RON (Homo sapiens, UniProt Q04912); conditions: 1 µM, ATP at Km
[43] = target: ROCK-II (Homo sapiens, UniProt O75116); conditions: 1 µM, ATP at Km
Chain of ROCK-II (O75116 whole entry): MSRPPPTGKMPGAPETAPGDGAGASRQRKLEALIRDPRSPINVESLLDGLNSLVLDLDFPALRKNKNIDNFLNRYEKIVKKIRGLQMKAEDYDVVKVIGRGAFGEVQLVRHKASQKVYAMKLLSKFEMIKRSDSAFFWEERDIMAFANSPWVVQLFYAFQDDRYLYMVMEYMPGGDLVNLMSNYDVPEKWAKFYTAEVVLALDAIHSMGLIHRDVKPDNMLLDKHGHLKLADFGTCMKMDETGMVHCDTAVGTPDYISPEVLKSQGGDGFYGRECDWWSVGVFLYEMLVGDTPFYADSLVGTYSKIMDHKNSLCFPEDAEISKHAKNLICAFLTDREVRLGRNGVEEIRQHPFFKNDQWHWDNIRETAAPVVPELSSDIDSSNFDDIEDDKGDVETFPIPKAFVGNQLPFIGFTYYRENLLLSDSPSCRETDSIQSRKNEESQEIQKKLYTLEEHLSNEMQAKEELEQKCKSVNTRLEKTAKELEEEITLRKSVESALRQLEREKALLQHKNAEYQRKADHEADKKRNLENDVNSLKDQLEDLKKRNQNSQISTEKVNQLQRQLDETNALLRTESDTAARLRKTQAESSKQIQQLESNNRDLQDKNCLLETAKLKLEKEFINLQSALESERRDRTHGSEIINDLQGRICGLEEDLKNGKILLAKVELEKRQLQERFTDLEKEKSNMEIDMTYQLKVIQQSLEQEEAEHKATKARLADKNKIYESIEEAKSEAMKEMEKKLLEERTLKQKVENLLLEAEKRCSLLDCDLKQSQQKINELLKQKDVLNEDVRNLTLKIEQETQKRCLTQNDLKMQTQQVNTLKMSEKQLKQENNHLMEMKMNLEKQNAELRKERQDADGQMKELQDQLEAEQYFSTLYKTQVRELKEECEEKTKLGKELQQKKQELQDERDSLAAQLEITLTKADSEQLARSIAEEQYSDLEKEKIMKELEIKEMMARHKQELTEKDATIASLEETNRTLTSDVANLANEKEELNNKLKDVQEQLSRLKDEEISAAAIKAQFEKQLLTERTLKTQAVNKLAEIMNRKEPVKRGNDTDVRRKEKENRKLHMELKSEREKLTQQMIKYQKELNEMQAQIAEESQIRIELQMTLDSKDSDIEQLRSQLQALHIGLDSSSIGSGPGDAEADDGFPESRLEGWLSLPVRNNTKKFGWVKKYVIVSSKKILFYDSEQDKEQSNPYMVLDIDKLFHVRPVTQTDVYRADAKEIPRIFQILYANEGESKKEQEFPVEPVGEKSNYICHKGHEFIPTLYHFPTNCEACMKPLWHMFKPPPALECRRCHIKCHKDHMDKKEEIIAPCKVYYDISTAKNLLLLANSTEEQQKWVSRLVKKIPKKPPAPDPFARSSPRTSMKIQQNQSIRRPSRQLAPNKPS

[44] = target: SAPK2B (Homo sapiens, UniProt Q15759); conditions: 1 µM, ATP at Km

**Q.** Which percentage effect [1] does the source give for `COC1CN(C(=O)c2ccc3c(N)ncc(-c4ccc(-c5cnn(C)c5)cc4)c3n2)C1` [Compound 51] here?
**A.** 18%

**Q.** And the percentage effect [2]?
**A.** -8%

**Q.** What about the percentage effect [3] of the same molecule?
**A.** -18%

**Q.** What about the percentage effect [4] of the same molecule?
**A.** 0%

**Q.** And the percentage effect [5]?
**A.** -1%

**Q.** What about the percentage effect [6] of the same molecule?
**A.** -6%

**Q.** What about the percentage effect [7] of the same molecule?
**A.** 3%

**Q.** What about the percentage effect [8] of the same molecule?
**A.** 6%

**Q.** What about the percentage effect [9] of the same molecule?
**A.** 2%

**Q.** What about the percentage effect [10] of the same molecule?
**A.** -15%

**Q.** What about the percentage effect [11] of the same molecule?
**A.** -3%

**Q.** What about the percentage effect [12] of the same molecule?
**A.** -8%

**Q.** And the percentage effect [13]?
**A.** 5%

**Q.** And the percentage effect [14]?
**A.** -10%

**Q.** And the percentage effect [15]?
**A.** -11%

**Q.** What about the percentage effect [16] of the same molecule?
**A.** 10%

**Q.** What about the percentage effect [17] of the same molecule?
**A.** -5%

**Q.** And the percentage effect [18]?
**A.** 2%

**Q.** What about the percentage effect [19] of the same molecule?
**A.** -10%

**Q.** And the percentage effect [20]?
**A.** 8%

**Q.** What about the percentage effect [21] of the same molecule?
**A.** 3%

**Q.** And the percentage effect [22]?
**A.** -5%

**Q.** What about the percentage effect [23] of the same molecule?
**A.** -1%

**Q.** And the percentage effect [24]?
**A.** -17%

**Q.** What about the percentage effect [25] of the same molecule?
**A.** 7%

**Q.** And the percentage effect [26]?
**A.** 20%

**Q.** And the percentage effect [27]?
**A.** -2%

**Q.** And the percentage effect [28]?
**A.** -1%

**Q.** And the percentage effect [29]?
**A.** 2%

**Q.** And the percentage effect [30]?
**A.** -7%

**Q.** And the percentage effect [31]?
**A.** 6%

**Q.** And the percentage effect [32]?
**A.** -5%

**Q.** And the percentage effect [33]?
**A.** 0%

**Q.** What about the percentage effect [34] of the same molecule?
**A.** -17%

**Q.** What about the percentage effect [35] of the same molecule?
**A.** 6%

**Q.** What about the percentage effect [36] of the same molecule?
**A.** -13%

**Q.** What about the percentage effect [37] of the same molecule?
**A.** -5%

**Q.** What about the percentage effect [38] of the same molecule?
**A.** -1%

**Q.** What about the percentage effect [39] of the same molecule?
**A.** -7%

**Q.** And the percentage effect [40]?
**A.** -11%

**Q.** And the percentage effect [41]?
**A.** 4%

**Q.** What about the percentage effect [42] of the same molecule?
**A.** 15%

**Q.** What about the percentage effect [43] of the same molecule?
**A.** -2%

**Q.** And the percentage effect [44]?
**A.** 0%

**Q.** For `COC1CN(C(=O)c2ccc3c(N)ncc(-c4ccc(-c5cnn(C)c5)cc4)c3c2)C1` [Compound 59], which percentage effect [1] is on record?
**A.** -3%

**Q.** What about the percentage effect [2] of the same molecule?
**A.** -8%

**Q.** And the percentage effect [3]?
**A.** -7%

**Q.** And the percentage effect [4]?
**A.** 16%

**Q.** What about the percentage effect [5] of the same molecule?
**A.** 9%

**Q.** What about the percentage effect [6] of the same molecule?
**A.** -3%

**Q.** What about the percentage effect [7] of the same molecule?
**A.** -24%

**Q.** And the percentage effect [8]?
**A.** 24%

**Q.** And the percentage effect [9]?
**A.** -18%

**Q.** What about the percentage effect [10] of the same molecule?
**A.** -2%

**Q.** What about the percentage effect [11] of the same molecule?
**A.** -5%

**Q.** And the percentage effect [12]?
**A.** -4%

**Q.** And the percentage effect [13]?
**A.** -4%

**Q.** What about the percentage effect [14] of the same molecule?
**A.** -5%

**Q.** What about the percentage effect [15] of the same molecule?
**A.** 4%

**Q.** And the percentage effect [16]?
**A.** 2%

**Q.** What about the percentage effect [17] of the same molecule?
**A.** -10%

**Q.** What about the percentage effect [18] of the same molecule?
**A.** 1%

**Q.** What about the percentage effect [19] of the same molecule?
**A.** 8%

**Q.** What about the percentage effect [20] of the same molecule?
**A.** -2%

**Q.** And the percentage effect [21]?
**A.** -15%

**Q.** What about the percentage effect [22] of the same molecule?
**A.** 1%

**Q.** And the percentage effect [23]?
**A.** 15%

**Q.** What about the percentage effect [24] of the same molecule?
**A.** -18%

**Q.** What about the percentage effect [25] of the same molecule?
**A.** -11%

**Q.** What about the percentage effect [26] of the same molecule?
**A.** -10%

**Q.** What about the percentage effect [27] of the same molecule?
**A.** 3%

**Q.** What about the percentage effect [28] of the same molecule?
**A.** 2%

**Q.** And the percentage effect [29]?
**A.** -10%

**Q.** And the percentage effect [30]?
**A.** -12%

**Q.** What about the percentage effect [31] of the same molecule?
**A.** 0%

**Q.** And the percentage effect [32]?
**A.** -7%

**Q.** What about the percentage effect [33] of the same molecule?
**A.** 5%

**Q.** What about the percentage effect [34] of the same molecule?
**A.** 28%

**Q.** And the percentage effect [35]?
**A.** 4%

**Q.** And the percentage effect [36]?
**A.** -7%

**Q.** And the percentage effect [37]?
**A.** -14%

**Q.** What about the percentage effect [38] of the same molecule?
**A.** -5%

**Q.** And the percentage effect [39]?
**A.** -4%

**Q.** And the percentage effect [40]?
**A.** -13%

**Q.** And the percentage effect [41]?
**A.** 8%

**Q.** What about the percentage effect [42] of the same molecule?
**A.** -11%

**Q.** What about the percentage effect [43] of the same molecule?
**A.** -12%

**Q.** What about the percentage effect [44] of the same molecule?
**A.** 43%
